Earlier results as cited in patent publication US20080275036A1, “Prevention and treatment of cardiac conditions” (APT Pharmaceuticals, Inc., priority 2007, published 2008).

Conditions: cited from earlier work

CC(CN1CC(=O)NC(=O)C1)N1CC(=O)NC(=O)C1 (racemic) [razoxane]
solubility in 0.1 N HCl (0.1 N HCl): sparingly soluble
solubility in non-polar, organic solvents: practically insoluble
solubility in polar solvents (ethanol and methanol): slightly soluble
